Measured values: patent US12139488B2, “Pyrido[3,2-d]pyrimidine compounds uses thereof for treating a proliferative disease” (Universite de Montreal, priority 2021, dated 2024)
Where two headings read alike, the source gives them in different places.

Experiments:
BRAF = BRAF (Homo sapiens (Human), UniProt P15056); assay: BRAF kinase activity assay (ADP-Glo); format: biochemical
Experimental: (§1) Compound preparation: solid samples of each substances in 1 dram vials were suspended in DMSO (Fisher Scientific) at a stock concentration of 20 mM. Stocks were kept at −20° C. and protected from light.
(§2) In vitro enzymatic reactions were used for evaluating compounds intrinsic activity against BRAF, CRAF and ARAF. […] Separate reactions were performed with the MEK1 substrate and ATP as a blank control.
(§3) For compound treatment, 5 μL/well of test substance solution are placed in a 384-well proxyplate (Perkin Elmer) and mixed with 2× concentrated kinase reactions. The dilution series is selected so that nine concentrations cover a range from 100 nM to 0.01 nM. […] The final concentration of DMSO in the assay is set at 0.05%.
(§4) BRAF and CRAF kinase reactions were carried out for a total of 2 hours at 30° C. and then stopped by ½ dilution in ADP-Glo Reagent (cat #V9102; Promega; part V912C). Reactions were then incubated for 1h at room temperature before addition of one volume of Kinase Detection Reagent (cat #V9102; Promega; part V917A). Plates were then equilibrated at room temperature for 30 minutes before detection of luminescence on a Synergy Neo2 plate reader (Biotek). The effect of each compound dilution on BRAF and CRAF kinase activity was expressed as % inhibition and calculated as follows.
(§5) IC50 values were obtained by plotting the kinase inhibition values and fitting the dose-activity curves using a log(agonist) versus response-variable slope (four parameters) function using either GraphPadPrism (V7.0) or Dotmatics Screening Ultra platform.

CRAF = CRAF (Homo sapiens, UniProt P04049); assay: CRAF kinase activity assay (ADP-Glo); format: biochemical
Experimental: as §1, §2, §3, §4, §5

[1] = system: pERK in HCT-116 cells (KRAS G13D); assay: Phospho-ERK inhibition (AlphaLISA SureFire Ultra p-ERK 1/2), HCT116; format: cell-based, human; settings: for HCT116 pERK % Ymin (lowest value of the IC50 curve): Ymin above −20% = minimal or no paradoxical activation
Procedure, shortened: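 p-ERK1/2 (Thr202/Tyr204) in lysates measured by AlphaLISA after 1 h compound exposure of overnight-plated cells (RPMI-1640, 5% FBS, 0.5% DMSO, ten concentrations, usually from 10 μM). Background from a trametinib control subtracted, inhibition normalised to vehicle, and IC50 fitted with a variable-slope four-parameter model.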

[2] = system: pERK in SW480 cells (KRAS G12D); assay: Phospho-ERK inhibition (AlphaLISA), SW480; format: cell-based, human
Experimental: All cancer cell lines (A375, A101D, A2058, RKO, HT29 SK-MEL 30, IPC298, HepG2, HCT-116, Lovo, SWV620, SW480, NCI-H358, NCI-H2122, Calu-6, NCIH2087, NCIH1755, NCIH1666 and Mewo) were obtained from ATCC and cultured in RPMI-1640 medium (Gibco) supplemented with 5% heat inactivated fetal bovine serum (FBS, Wisent) at 37° C. under 5% CO2. Cells were maintained in T175 flasks (Greiner). They were passaged by removing the culture medium, washing once in 10 mL of room temperature Phosphate Buffered Saline (PBS; Wisent) and incubating at 37° C. with 2 mL of 0.05% Trypsin (Thermo-Fisher). Trypsin was then inactivated by adding complete growth medium and the cells were then replated in a T175 culture dish at the appropriate dilution. All cell lines were routinely tested for mycoplasma contamination. Tissue type and mutational status of each cell line can be found in Table B.
AlphaLISA® SureFire® Ultra™ p-ERK 1/2 (Thr202/Tyr204) analysis was conducted on cells plated in 100 μL of complete RPMI-1640 growth medium in 96-well flat-bottomed transparent dishes (Costar) at a density indicated in Table C. Cells were maintained overnight at 37° C. under 5% CO2 before treatment with compounds' dilution series for one hour. The cell density in cells/cm^2 corresponds to cell number divided by the area of one well of a 96-well plate ([…]).
In a dilution series 100 μL/well of test substance dilution prepared in complete RPMI-1640 growth media was added to the cells. The dilution series is selected so that ten concentrations cover a range from 10 μM to 0.33 nM. If necessary the initial concentration of 10 μM is increased to 100 μM or lowered to 1 μM (as in the case of A375 and H1666 cells, which are generally more sensitive to the compounds) and further dilution is carried out accordingly. The final concentration of DMSO in the assay is set at 0.5%.
After treatment, media was removed and cells were lysed in 50 μL of 1× AlphaScreen Ultra Lysis Buffer (Perkin Elmer). The AlphaLISA® SureFire® Ultra™ p-ERK 1/2 (Thr202/Tyr2O4) (PerkinElmer) reactions were performed with 5 μL of cell lysate according to the manufacturer's specifications in 384-well proxyplates (Perkin Elmer) followed by overnight incubation of the reactions at room temperature in a humidified chamber. After completion of the reactions, the signals were recorded on an EnVision plate reader (Perkin Elmer) using built in AlphaLISA® settings.
The effect of each compound dilution on the pERK signal was expressed in % inhibition and calculated as follows. An internal 100% inhibition control ([…] trametinib, cat #HY-10999; MedChem Express; CAS #871700-17-3) was included in each plate and used as a measure of pERK background. First, the value obtained for trametinib was subtracted from each data point. The average of DMSO (vehicle) controls (set as 0% inhibition) was established and used to calculate % inhibition: % inhibition=100*(1-((pERK signalcompound)/(pERK signalDMSO)))
The ability of each compound to inhibit pERK signal was expressed as an IC50 value obtained by plotting the inhibition values for each data point of a dilution series and fitting the obtained curves using a log(agonist) versus response-variable slope (four parameters) function using GraphPadPrism (V7.0) or Dotmatics Screening Ultra platform.
When present, paradoxical pERK induction is inferred from the negative % inhibition values observed in the pERK IC50 curves of a compound.

[3] = read-out: Kinase IC50 (nM) BRAF
[4] = read-out: Kinase IC50 (nM) CRAF
[5] = HCT116 cells, class symbol before the bracket
[6] = SW480 cells, class symbol before the bracket
[7] = lowest % inhibition value of the IC50 curve, HCT116
[8] = lowest % inhibition value of the IC50 curve, SW480
[9] = BRAF, read-out: Kinase IC50 (nM), BRAF biochemical kinase assay
[10] = CRAF, read-out: Kinase IC50 (nM), CRAF biochemical kinase assay

Chain of CRAF (P04049 whole entry, looked up): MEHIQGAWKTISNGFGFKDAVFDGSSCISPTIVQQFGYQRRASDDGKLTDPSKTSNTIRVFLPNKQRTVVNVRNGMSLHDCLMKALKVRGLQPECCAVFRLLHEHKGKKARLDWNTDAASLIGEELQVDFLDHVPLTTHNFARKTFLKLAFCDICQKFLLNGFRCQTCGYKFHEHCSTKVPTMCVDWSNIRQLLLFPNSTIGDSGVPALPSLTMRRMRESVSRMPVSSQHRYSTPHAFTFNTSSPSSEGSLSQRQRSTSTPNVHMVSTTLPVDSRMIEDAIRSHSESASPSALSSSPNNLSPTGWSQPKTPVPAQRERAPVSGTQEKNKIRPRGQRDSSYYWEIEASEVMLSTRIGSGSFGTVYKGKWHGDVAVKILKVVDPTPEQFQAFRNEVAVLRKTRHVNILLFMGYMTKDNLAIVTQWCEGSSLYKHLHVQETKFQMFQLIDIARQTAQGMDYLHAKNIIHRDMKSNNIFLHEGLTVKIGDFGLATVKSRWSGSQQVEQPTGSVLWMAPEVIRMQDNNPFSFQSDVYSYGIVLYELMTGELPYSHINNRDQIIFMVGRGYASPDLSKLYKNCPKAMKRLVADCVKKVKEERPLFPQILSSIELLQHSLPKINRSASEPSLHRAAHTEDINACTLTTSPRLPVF
Chain of BRAF (P15056 whole entry): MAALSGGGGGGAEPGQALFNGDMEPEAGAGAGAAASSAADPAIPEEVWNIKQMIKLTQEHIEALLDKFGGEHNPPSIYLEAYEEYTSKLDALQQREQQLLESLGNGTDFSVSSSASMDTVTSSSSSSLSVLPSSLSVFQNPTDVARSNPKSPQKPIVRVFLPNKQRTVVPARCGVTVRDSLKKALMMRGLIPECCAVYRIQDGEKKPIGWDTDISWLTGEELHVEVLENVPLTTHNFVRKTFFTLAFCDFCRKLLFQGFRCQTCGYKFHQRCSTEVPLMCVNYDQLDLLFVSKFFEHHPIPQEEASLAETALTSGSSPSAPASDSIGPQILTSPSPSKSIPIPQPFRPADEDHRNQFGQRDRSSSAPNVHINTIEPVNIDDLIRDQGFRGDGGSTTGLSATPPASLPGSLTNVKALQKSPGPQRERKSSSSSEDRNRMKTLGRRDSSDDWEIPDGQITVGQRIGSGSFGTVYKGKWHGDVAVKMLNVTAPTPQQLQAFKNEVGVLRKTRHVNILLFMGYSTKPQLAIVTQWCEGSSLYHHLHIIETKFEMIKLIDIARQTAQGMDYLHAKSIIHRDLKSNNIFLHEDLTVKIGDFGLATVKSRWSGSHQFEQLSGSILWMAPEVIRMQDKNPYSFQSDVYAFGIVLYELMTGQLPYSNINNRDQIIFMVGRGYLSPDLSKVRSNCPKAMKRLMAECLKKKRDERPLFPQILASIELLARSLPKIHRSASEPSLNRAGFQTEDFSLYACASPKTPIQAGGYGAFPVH

Row | SMILES | IC50 (BRAF; [3]) [nM] | IC50 (CRAF; [4]) [nM] | HCT116 pERK Ymin % ([1]; HCT116 cells, Ymin in brackets) [%] | IC50 [1, 5] [nM] | other results
1 | COc1ccc(S(=O)(=O)Nc2ccc(F)c(Nc3ncnc4ccc(-n5cnc6c(C(N)=O)cccc65)nc34)c2F)c(C)c1 [Example 75] | > 10 | 10 to 50 | 0 | 500 to 1000 | SW480 pERK Ymin % ([2]; SW480 cells, Ymin in brackets): 1%; IC50 [2, 6]: 500 to 1000 nM
2 | Cc1ncn(-c2ccc3ncnc(Nc4c(F)ccc(NS(=O)(=O)c5ccccc5Cl)c4F)c3n2)c1C [Ex 66] | 1 to 10 | 10 to 50 | −2 | 1000 to 10000 | SW480 pERK Ymin % ([2]; SW480 cells, Ymin in brackets): −5%; IC50 [2, 6]: 1000 to 10000 nM
3 | COc1ccc(S(=O)(=O)Nc2ccc(F)c(Nc3ncnc4ccc(-n5cnc6ccccc65)nc34)c2F)cc1 [Example 1] | 1 to 10 | 10 to 50 | – | – | IC50 ([1]; HCT116 cells, 1 h treatment): 1000 to 10000 nM; HCT116 pERK Ymin % [1, 7]: 8%; IC50 ([2]; SW480 cells, 1 h treatment): 1000 to 10000 nM; SW480 pERK Ymin % [2, 8]: 4%
4 | COc1ccc(S(=O)(=O)Nc2ccc(F)c(Nc3ncnc4ccc(-c5cnn6ccccc56)nc34)c2F)c(C)c1 [Ex 73] | > 10 | > 50 | 5 | 1000 to 10000 | SW480 pERK Ymin % ([2]; SW480 cells, Ymin in brackets): −1%; IC50 [2, 6]: 1000 to 10000 nM
5 | COc1cncc(-c2ccc3ncnc(Nc4c(F)ccc(NS(=O)(=O)c5ccc(OC)cc5C)c4F)c3n2)c1 [Ex 62] | > 10 | > 50 | −9 | 1000 to 10000 | SW480 pERK Ymin % ([2]; SW480 cells, Ymin in brackets): 8%; IC50 [2, 6]: 1000 to 10000 nM
6 | Nc1cccc2c1nnn2-c1ccc2ncnc(Nc3c(F)ccc(NS(=O)(=O)c4cccc(Cl)c4Cl)c3F)c2n1 [Example 100] | < 1 | < 10 | −16 | < 500 | SW480 pERK Ymin % ([2]; SW480 cells, Ymin in brackets): 16%; IC50 [2, 6]: < 500 nM
7 | CCc1ccc(S(=O)(=O)Nc2ccc(F)c(Nc3ncnc4ccc(-n5cnc6ccccc65)nc34)c2F)cc1 [Example 10] | > 10 | > 50 | – | – | IC50 ([1]; HCT116 cells, 1 h treatment): 10000 to 30000 nM; HCT116 pERK Ymin % [1, 7]: 1%; IC50 ([2]; SW480 cells, 1 h treatment): 1000 to 10000 nM; SW480 pERK Ymin % [2, 8]: 12%
8 | N#CC1(c2cccc3c2nnn3-c2ccc3ncnc(Nc4c(F)ccc(NS(=O)(=O)c5cccc(Cl)c5Cl)c4F)c3n2)CC1 [Example 610] | – | – | – | – | IC50 (BRAF; [9]): 1 to 10 nM; IC50 (CRAF; [10]): < 10 nM; IC50 ([1]; HCT116 cells): < 500 nM; HCT116 pERK % Ymin (lowest value of the IC50 curve) ([1]; HCT116 cells): −2%
9 | O=S(=O)(Nc1ccc(F)c(Nc2ncnc3ccc(-n4cc(-c5ncc[nH]5)c5ccccc54)nc23)c1F)c1cccc(Cl)c1Cl [Example 207] | 1 to 10 | 10 to 50 | −11 | 1000 to 10000 | –
10 | Nc1nc(-c2ccc3ncnc(Nc4c(F)ccc(NS(=O)(=O)c5ccccc5Cl)c4F)c3n2)cs1 [Example 94] | > 10 | > 50 | −5 | 1000 to 10000 | –
11 | CC(=O)Nc1cccc2c1ncn2-c1ccc2ncnc(Nc3c(F)ccc(NS(=O)(=O)c4ccccc4Cl)c3F)c2n1 [Example 85] | 1 to 10 | 10 to 50 | 2.9 | 500 to 1000 | –
12 | Cc1c(F)cccc1S(=O)(=O)Nc1ccc(F)c(Nc2ncnc3ccc(-n4ncc5c4CN(C)CC5)nc23)c1F [Example 664] | – | – | – | – | IC50 (BRAF; [9]): 1 to 10 nM; IC50 (CRAF; [10]): > 50 nM; IC50 ([1]; HCT116 cells): 1000 to 10000 nM; HCT116 pERK % Ymin (lowest value of the IC50 curve) ([1]; HCT116 cells): −15%
13 | Cc1scc(S(=O)(=O)Nc2ccc(F)c(Nc3ncnc4ccc(-n5cnc6ccccc65)nc34)c2F)c1C [Example 320] | 1 to 10 | > 50 | – | – | IC50 ([1]; HCT116 cells, 1 h treatment): 1000 to 10000 nM; HCT116 pERK Ymin % [1, 7]: −5%
14 | O=S(=O)(Nc1ccc(F)c(Nc2ncnc3ccc(-n4nc(-c5nnc(O)o5)c5ccccc54)nc23)c1F)c1cccc(Cl)c1Cl [Example 208] | 1 to 10 | < 10 | −4 | 1000 to 10000 | –
15 | O=S(=O)(Nc1ccc(F)c(Nc2ncnc3ccc(-n4nc(-c5ncc[nH]5)c5ccccc54)nc23)c1F)c1ccccc1Cl [Example 213] | 1 to 10 | > 50 | −8 | 1000 to 10000 | –
16 | O=S(=O)(Nc1ccc(F)c(Nc2ncnc3ccc(-n4cnc5c(N6C7CCC6CN(CCO)C7)cccc54)nc23)c1F)c1cccc(Cl)c1Cl [Example 629] | – | – | – | – | IC50 (BRAF; [9]): 1 to 10 nM; IC50 (CRAF; [10]): 10 to 50 nM; HCT116 pERK % Ymin (lowest value of the IC50 curve) ([1]; HCT116 cells): −2%
17 | O=S(=O)(Nc1cc(F)c(F)c(Nc2ncnc3ccc(-n4cnc5ccccc54)nc23)c1F)c1cccc(Cl)c1Cl [Example 648] | – | – | – | – | IC50 (BRAF; Table 5, read-out: Kinase IC50 (nM) BRAF): 1 to 10 nM; IC50 (CRAF; Table 5, read-out: Kinase IC50 (nM) CRAF): < 10 nM; IC50 ([1]; HCT116 cells, Table 5): < 500 nM; HCT116 pERK Ymin % ([1]; lowest value of the curve, HCT116, Table 5): −1%
